Experiment [1] has as its system Wnt reporter (TCF/LEF1 promoter). As to the kind of experiment: HEK STF293 Wnt reporter (TOPFlash) luciferase assay, Steady Glo normalised to Cell Titer. Type of experiment: cell-based, human. The procedure: All compounds were tested using the human cell line HEK STF293. This cell line carries a Wnt reporter (TCF/LEF1 promoter), which drives expression of the firefly luciferase protein. The level of Wnt activity is directly correlated with the level of luciferase activity (determined using a simple assay). Compounds that inhibit Wnt signaling by reducing luciferase activity in these two cell lines are further tested biochemically. […] Compounds were further tested in a Viability assay using Wnt-dependent HCT116 cell line. Compounds were prepared as 10 mM stocks for each compound in DMSO. Dilutions were prepared in a 96-well plate in DMSO. The stock dilutions are as follows: 10 mM, 1 mM, 100 μM, 10 μM, 100 nM, and 10 nM. Plates were sealed and stored at −20° C. […] On the first day, Wnt3a-conditioned media (1:1) were added along with diluted compounds (1:100). […] The final concentrations should therefore be 100 μM, 10 μM, 1 μM, 100 nM, 10 nM, and 1 nM. On the second day, the media was removed and 75 μL of Passive Lysis Buffer (Promega) is added to each well. The plate was shaken at 130 rpm for 15 minutes. For the Steady Glo assay, 45 μL of the lysis was removed and added to a white 96-well plate containing 45 μL/well of Steady Glo solution (Promega). For the Cell Titer assay, 25 μL of the lysis was transferred to a white 96-well plate containing 25 μL/well of Cell Titer solution (Promega). Both Steady Glo and Cell Titer assays were read with a luminescence plate reader. When determining EC50, the Steady Glo values were divided by the Cell Titer values to normalize for cell number. All compounds were tested using the human cell line HEK STF293. This cell line carries a Wnt reporter (TCF/LEF1 promoter), which drives expression of the firefly luciferase protein. The level of Wnt activity is directly correlated with the level of luciferase activity (determined using a simple assay). Compounds that inhibit Wnt signaling by reducing luciferase activity in these two cell lines are further tested biochemically. […] Compounds were further tested in a Viability assay using Wnt-dependent HCT116 cell line. Compounds were prepared as 10 mM stocks for each compound in DMSO. Dilutions were prepared in a 96-well plate in DMSO. The stock dilutions are as follows: 10 mM, 1 mM, 100 μM, 10 μM, 100 nM, and 10 nM. Plates were sealed and stored at −20° C. […] On the first day, Wnt3a-conditioned media (1:1) were added along with diluted compounds (1:100). […] The final concentrations should therefore be 100 μM, 10 μM, 1 μM, 100 nM, 10 nM, and 1 nM. On the second day, the media was removed and 75 μL of Passive Lysis Buffer (Promega) is added to each well. The plate was shaken at 130 rpm for 15 minutes. For the Steady Glo assay, 45 μL of the lysis was removed and added to a white 96-well plate containing 45 μL/well of Steady Glo solution (Promega). For the Cell Titer assay, 25 μL of the lysis was transferred to a white 96-well plate containing 25 μL/well of Cell Titer solution (Promega). Both Steady Glo and Cell Titer assays were read with a luminescence plate reader. When determining EC50, the Steady Glo values were divided by the Cell Titer values to normalize for cell number. All compounds were tested using the human cell line HEK STF293. This cell line carries a Wnt reporter (TCF/LEF1 promoter), which drives expression of the firefly luciferase protein. The level of Wnt activity is directly correlated with the level of luciferase activity (determined using a simple assay). Compounds that inhibit Wnt signaling by reducing luciferase activity in these two cell lines are further tested biochemically. […] Compounds were further tested in a Viability assay using Wnt-dependent HCT116 cell line. Compounds were prepared as 10 mM stocks for each compound in DMSO. Dilutions were prepared in a 96-well plate in DMSO. The stock dilutions are as follows: 10 mM, 1 mM, 100 μM, 10 μM, 100 nM, and 10 nM. Plates were sealed and stored at −20° C. […]

Experiment [2] concerns Wnt-dependent HCT116 cell line. The experiment can be described thus: Viability assay using Wnt-dependent HCT116 cell line (Cell Titer Glo). Type of experiment: cell-based. Here is the method:
All compounds were tested using the human cell line HEK STF293. This cell line carries a Wnt reporter (TCF/LEF1 promoter), which drives expression of the firefly luciferase protein. The level of Wnt activity is directly correlated with the level of luciferase activity (determined using a simple assay). Compounds that inhibit Wnt signaling by reducing luciferase activity in these two cell lines are further tested biochemically. […] Compounds were further tested in a Viability assay using Wnt-dependent HCT116 cell line. HEK293 cells were seeded in a 6-well plate at approximately 8.0×10^5 cells (2 mL per well). On the first day, Wnt3a-conditioned media (1:1) and compounds (1:100) were added to the plated cells. The final concentrations of compounds were 1 μM, 500 nM, and 100 nM. Vehicle (DMSO) and a Wnt3a-conditioned media plus Vehicle samples were also prepared as controls. Lysates were collected (with non-denaturing lysis buffer) after 24 hours incubation, and protein concentrations determined by Bradford Assay. Immunoblotting with an anti-beta-catenin antibody (equivalent amounts of protein/lane for each condition) were subsequently performed to determine beta-catenin levels. HCT116 cells were seeded at 2,500 cells/well in a 96-well dish (Volume: 100 μL/well). On the second day, the 10 mM stock solution of each test compound was thawed at room temperature. Dilutions of the test compound were prepared in DMSO in a V-bottom 96-well plate. The stock compound solution, DMSO-diluted compound solutions, and DMSO were further diluted 500-fold in cell culture media, and 100 μL of the compound- or DMSO-containing cell culture media was added to each well of the cells. […] The final DMSO concentration was 0.1% in all wells. On the fifth day, 150 μL of media was removed from each well. 50 μL/well Cell Titer Glo reagent (Promega) was added to each well. The plate was shaken at 130 rpm for 15 minutes at room temperature, and the cell viability was determined using a luminescence plate reader. All compounds were tested using the human cell line HEK STF293. This cell line carries a Wnt reporter (TCF/LEF1 promoter), which drives expression of the firefly luciferase protein. The level of Wnt activity is directly correlated with the level of luciferase activity (determined using a simple assay). Compounds that inhibit Wnt signaling by reducing luciferase activity in these two cell lines are further tested biochemically. […] Compounds were further tested in a Viability assay using Wnt-dependent HCT116 cell line. HEK293 cells were seeded in a 6-well plate at approximately 8.0×10^5 cells (2 mL per well). On the first day, Wnt3a-conditioned media (1:1) and compounds (1:100) were added to the plated cells. The final concentrations of compounds were 1 μM, 500 nM, and 100 nM. Vehicle (DMSO) and a Wnt3a-conditioned media plus Vehicle samples were also prepared as controls. Lysates were collected (with non-denaturing lysis buffer) after 24 hours incubation, and protein concentrations determined by Bradford Assay. Immunoblotting with an anti-beta-catenin antibody (equivalent amounts of protein/lane for each condition) were subsequently performed to determine beta-catenin levels. HCT116 cells were seeded at 2,500 cells/well in a 96-well dish (Volume: 100 μL/well). On the second day, the 10 mM stock solution of each test compound was thawed at room temperature. Dilutions of the test compound were prepared in DMSO in a V-bottom 96-well plate. The stock compound solution, DMSO-diluted compound solutions, and DMSO were further diluted 500-fold in cell culture media, and 100 μL of the compound- or DMSO-containing cell culture media was added to each well of the cells. […] The final DMSO concentration was 0.1% in all wells. On the fifth day, 150 μL of media was removed from each well. 50 μL/well Cell Titer Glo reagent (Promega) was added to each well. The plate was shaken at 130 rpm for 15 minutes at room temperature, and the cell viability was determined using a luminescence plate reader. […]
Background: ATP-based viability assays read luminescence as a measure of living cells.

[3] abbreviates: Homo sapiens, STF/293, Examples for Formulae (IV), (V), (VI), and (VII), HEK STF293 cells, Wnt3a-conditioned media, read-out: TOPFlash IC50 category.
The mark [4] stands for this setting: Homo sapiens, HCT-116, Examples for Formulae (IV), (V), (VI), and (VII), HCT116 cells, read-out: Viability IC50 category.
Where [5] appears, read: Homo sapiens, STF/293, Examples for Formulae (I), (II), and (III), HEK STF293 cells, Wnt3a-conditioned media, read-out: TOPFlash IC50 category.
[6] abbreviates: Homo sapiens, HCT-116, Examples for Formulae (I), (II), and (III), HCT116 cells, read-out: Viability IC50 category.
Setting [7] is: Homo sapiens, STF/293, Examples for Formulae (VIII), (IX), and (X), HEK STF293 cells, Wnt3a-conditioned media, read-out: TOPFlash IC50 category.
Setting [8] is: Homo sapiens, HCT-116, Examples for Formulae (VIII), (IX), and (X), HCT116 cells, read-out: Viability IC50 category.
[9] abbreviates: Examples for Formulae (IV), (V), (VI), and (VII), HEK STF293 cells, Wnt3a-conditioned media, read-out: TOPFlash IC50 category.
Where [10] appears, read: Examples for Formulae (IV), (V), (VI), and (VII), HCT116 cells, read-out: Viability IC50 category.

Where two headings read alike, the source gives them in different places.

For the molecule `O=C(Nc1nc(-c2ccccn2)cs1)c1oc(CN2CCOCC2)nc1-c1ccc(F)cc1` [Example 72], the IC50 in experiment [1] (setting [3]) and in experiment [2] (setting [4]) was 200 to 500 nM throughout.
On to `COc1ncccc1-c1noc(C)c1C(=O)Nc1nc(-c2ccccn2)cs1` [Example 22], for which the IC50 in experiment [1] (Homo sapiens, STF/293, read-out: TOPFlash IC50 category) was in the range of 200 to 500 nM; in experiment [2] (Homo sapiens, HCT-116, read-out: Viability IC50 category) it was 200 to 500 nM.
As to `COc1ccc(Cn2cc(C(=O)Nc3nc(-c4ccccn4)cs3)cn2)cc1` [Example 3], the half-inhibitory concentration (IC50) in experiment [1] (setting [5]) and in experiment [2] (setting [6]) was 1000 to 10000 nM each time.
Regarding `CCS(=O)(=O)N(C)c1nc(-c2ccc(F)cc2)c(C(=O)Nc2nc(-c3ccccn3)cs2)o1` [Example 57], the IC50 in experiment [1] (setting [3]) and in experiment [2] (setting [4]) was below 200 nM in each case.
Consider `COCc1nc(-c2ccc(F)cc2)c(C(=O)Nc2nc(-c3ccccn3)cs2)o1` [Example 69], for which the IC50 in experiment [1] (setting [3]) and in experiment [2] (setting [4]) was 200 to 500 nM in each case.
Turning to `O=C(Nc1nc(-c2ccccn2)cs1)c1ccc(=O)n(Cc2ccc(F)cc2)c1` [Example 4], the IC50 in experiment [1] (setting [7]) and in experiment [2] (setting [8]) was 500 to 1000 nM throughout.
For `COc1ccc(S(=O)(=O)N(C)c2ncc(C(=O)O)o2)cc1` [Example 40], the IC50 in experiment [1] (setting [9]) and in experiment [2] (setting [10]) was 200 to 500 nM throughout.
With `Cc1ccc(Cn2nc(C)c(C(=O)Nc3nc(-c4ccccn4)cs3)c2C)cc1` [Example 10], the IC50 lay in the range of 500 to 1000 nM in experiment [1] (setting [5]) and 1000 to 10000 nM in experiment [2] (setting [6]).
For the molecule `Cc1onc(-c2ccc(Cl)cc2Cl)c1C(=O)Nc1nc(-c2ccccn2)cs1` [Example 17], the half-inhibitory concentration (IC50) in experiment [1] (setting [3]) and in experiment [2] (setting [4]) was 200 to 500 nM in each case.
Turning to `CN(C(=O)c1ccccc1Cl)c1nc(C(F)(F)F)c(C(=O)Nc2nc(-c3ccccn3)cs2)o1` [Example 78], the values for the IC50 in experiment [1] (setting [3]) and in experiment [2] (setting [4]) were 500 to 1000 nM and 1000 to 10000 nM, respectively.
`CC(C)S(=O)(=O)N(C)c1nc(-c2ccc(F)cc2)c(C(=O)Nc2nc(-c3ccccn3)cs2)o1` [Example 58]: the IC50 in experiment [1] (setting [3]) and in experiment [2] (setting [4]) was below 200 nM each time.
Turning to `O=C(Nc1nc(-c2ccccn2)cs1)c1oc(C2CC2)nc1-c1ccc(F)cc1` [Example 31], the values for the IC50 in experiment [1] (setting [3]) and in experiment [2] (setting [4]) were below 200 nM and 200 to 500 nM, respectively.
Regarding `Cc1onc(-c2ccc(Cl)cc2F)c1C(=O)Nc1nc(-c2ccccn2)cs1` [Example 16], the IC50 in experiment [1] (setting [3]) and in experiment [2] (setting [4]) was 200 to 500 nM throughout.
Take `Cc1nc(N(C)S(=O)(=O)c2ccc(Cl)cc2)oc1C(=O)Nc1nc(-c2ccccn2)cs1` [Example 52]: the IC50 in experiment [1] (setting [3]) and in experiment [2] (setting [4]) was 500 to 1000 nM in each case.
Turning to `CN1CCN(c2cccc(-c3ncoc3C(=O)Nc3nc(-c4ccccn4)cs3)c2)CC1` [Example 45], the IC50 in experiment [1] (setting [9]) and in experiment [2] (setting [10]) was 1000 to 10000 nM throughout.
Regarding `O=C(Nc1nc(-c2ccccn2)cs1)c1ccn(Cc2ccc(C(F)(F)F)cc2)c(=O)c1` [Example 10], the IC50 in experiment [1] (setting [7]) and in experiment [2] (setting [8]) was 500 to 1000 nM each time.
Consider `Cc1onc(-c2ccc(OC(F)(F)F)cc2)c1C(=O)Nc1nc(-c2ccccn2)cs1` [Example 26], for which the values for the IC50 in experiment [1] (setting [3]) and in experiment [2] (setting [4]) were 200 to 500 nM and below 200 nM, respectively.
Regarding `CN(c1nc(C(F)(F)F)c(C(=O)Nc2nc(-c3ccccn3)cs2)o1)S(=O)(=O)c1ccc(Cl)cc1` [Example 53], the IC50 in experiment [1] (setting [9]) and in experiment [2] (setting [10]) was 500 to 1000 nM in each case.
Regarding `Cc1nc(N(C)S(=O)(=O)c2cccc(Cl)c2)oc1C(=O)Nc1nc(-c2ccccn2)cs1` [Example 51], the half-inhibitory concentration (IC50) in experiment [1] (setting [3]) and in experiment [2] (setting [4]) was 500 to 1000 nM each time.
Regarding `Cc1c(C(=O)Nc2nc(-c3ccccn3)cs2)cnn1Cc1ccccc1` [Example 1], the IC50 in experiment [1] (setting [5]) and in experiment [2] (setting [6]) was 1000 to 10000 nM throughout.
Take `CS(=O)(=O)c1ccc(F)cc1-c1ncoc1C(=O)Nc1nc(-c2ccccn2)cs1` [Example 47]: the IC50 lay in the range of 500 to 1000 nM in experiment [1] (setting [3]) and 200 to 500 nM in experiment [2] (setting [4]).
On to `Cc1onc(-c2ccc(C(F)(F)F)c(Cl)c2)c1C(=O)Nc1nc(-c2ccccn2)cs1` [Example 63], for which the IC50 in experiment [1] (setting [3]) and in experiment [2] (setting [4]) was 200 to 500 nM throughout.

As usually defined, the IC50 is the concentration that gives 50% inhibition.

(Values after patent US20250257061A1, “COMPOSITIONS AND METHODS FOR TREATING CANCER AND REDUCING WNT MEDIATED EFFECTS” (StemSynergy Therapeutics, Inc., priority 2024, published 2025).)
